Measurements taken from PubChem BioAssay (NCI).
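A five-concentration, 48-hour dose response in 96-well plates underlies each endpoint, interpolated linearly between surrounding concentrations. TGI: concentration producing complete growth inhibition.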

Tests used:
Assay in all cases: NCI-60 cell line screen, 48 h
PC-3 prostate = test system: PC-3 prostate
MOLT-4 leukemia = test system: MOLT-4 leukemia
COLO 205 colon = test system: COLO 205 colon
IGROV1 ovarian = test system: IGROV1 ovarian
NCI/ADR-RES ovarian = test system: NCI/ADR-RES ovarian
T-47D breast = test system: T-47D breast
EKVX NSCLC = test system: EKVX NSCLC
SNB-19 CNS = test system: SNB-19 CNS

Row | Compound | TGI (PC-3 prostate) [µM] | TGI (MOLT-4 leukemia) [µM] | TGI (COLO 205 colon) [µM] | TGI (IGROV1 ovarian) [µM] | TGI (NCI/ADR-RES ovarian) [µM] | TGI (T-47D breast) [µM] | TGI (EKVX NSCLC) [µM] | TGI (SNB-19 CNS) [µM]
1 | COc1ccc(C(OCC2OC(n3ccc(NC(=O)c4ccccc4)nc3=O)CC2OP2(=S)SCCS2)(c2ccccc2)c2ccc(OC)cc2)cc1 (centres undefined) | 41.5 | > 100 | > 10 | > 100 | > 10 | > 100 | > 100 | 86.4
2 | Cc1ccc2c(c1)C(=O)C(C1OC(=O)c3ccccc31)C2 (centres undefined) | > 100 | > 100 | > 100 | > 100 | > 100 | > 100 | > 100 | > 100
3 | COc1ccc2oc(=O)c(-c3csc(C)n3)cc2c1 | > 100 | > 100 | > 100 | > 100 |  |  | > 100 | > 100
4 | C[C@H]1S[C@H](c2c(Cl)cccc2Cl)N2Cc3ccccc3N=C12 | 37.7 | > 100 | 25.2 | 26.1 |  | 36.4 | 23.4 | 23.3
5 | O=[N+]([O-])c1ccc(O)c(/C=N/NC(=S)N2CCCCC2)c1 | > 92.7 | > 44.4 | > 37.9 | 8.76 | 3.85 | > 80.1 | 15.3 | > 53.6
6 | O=C1Nc2ccccc2/C1=c1\[nH]c(=O)/c(=C\c2ccc(OCc3ccccc3)cn2)[nH]c1=O | > 100 | > 100 | > 100 | > 100 | > 100 | > 100 | > 100 | > 100
7 | CSc1c(C(=O)Nc2ccc(Cl)cc2)c(N)n(N)c(=O)c1C#N | > 100 | > 100 | > 100 |  | > 100 | > 100 | > 100 | > 100
8 | NNC(=O)c1cc(=O)[nH][nH]1 | > 100 | > 100 | > 100 | > 100 | > 100 | > 100 | > 100 | > 100
9 | COC(=O)c1ccc(Nc2nc3nc[nH]c3c(=O)[nH]2)cc1 | > 100 | > 100 | > 100 | > 100 | > 100 | > 100 | > 100 | > 100
10 | CCOc1cc(NC(C)=O)ccc1C(=O)NN1C(=O)CSC1c1ccccc1 (centres undefined) | > 100 | 58.2 | > 100 | > 100 | > 100 | > 100 | > 100 | > 100
11 | CSC1NC(c2ccc(Cl)cc2)=C(C#N)C(=O)N1C1OCC(OC(C)=O)C(OC(C)=O)C1OC(C)=O (centres undefined) | > 100 | > 100 | > 100 | > 100 | > 100 |  | > 100 | > 100
12 | c1cnc(N2CCN(Cc3c[nH]c4ccccc34)CC2)nc1 | > 100 | > 100 | 67.6 | > 100 | > 100 | 72.2 | > 100 | > 100
13 | O=C1c2cn[nH]c2C(c2ccccc2)N1c1ccccc1 (centres undefined) | > 10 | > 10 | > 10 | > 10 | > 10 | > 10 | > 10 | > 10
14 | CC(=O)N(O)c1ccc(-c2nc3ccccc3s2)cc1 | > 100 | > 100 | > 100 | > 100 | > 100 | > 100 |  | > 100
15 | C/C1=C\C=C(\C(C)C)CC/C(C(=O)O)=C\CC/C(C)=C/CC1 | 35.2 | 43.2 | 50.6 | > 100 | 76.2 | > 100 | 78.7 | 51.2
16 | NC(Cc1ccc(S(=O)(=O)O)cc1)C(=O)NC(Cc1ccc(S(=O)(=O)O)cc1)C(=O)O (centres undefined) | > 100 | > 100 | > 100 | > 100 | > 100 | > 100 | > 100 | 
17 | O=C(NC(=S)NC(=O)c1cc(O)c(O)c(O)c1)c1cc(O)c(O)c(O)c1 | 39.8 |  | 46.7 |  | 70.4 |  |  | 52.8
18 | CC(=N\N)/C(C)=N/N=C(C)/C(C)=N/N=C(C)/C(C)=N/N | > 100 | > 100 | > 100 | > 100 | > 100 | > 100 | > 100 | > 100
19 | CC(=O)N1CCn2c1nc1cc(Cl)ccc12 | > 100 | > 100 | > 100 | > 100 | > 100 | 51.4 | > 100 | > 100
20 | Cc1nc2c(=S)n(C)ncc2[nH]1 | > 100 | > 100 | > 100 | > 100 | > 100 | > 100 | > 100 | 
21 | COc1ccccc1C[C@@H]1OC2(C=CC(=O)C=C2)O[C@H]1Cc1ccccc1OC | 20.6 | > 50 | 14.9 | 13.6 | 18.4 | > 50 | 13 | 24.2
22 | N#C[C@H](c1nc2ccccc2s1)c1nc2ccccc2nc1Cl | > 100 | > 100 | > 100 | > 100 | > 100 | > 100 | > 100 | > 100
23 | CCOC(=O)Oc1ccc2c(c1)c(=O)c1c(NCCN(CC)CC)ccc3nnn2c31 | 15.1 | 13.6 | 14.9 | 21.7 | 18.9 | 29.2 | 19.9 | 15.9
24 | CC1=NC(=Cc2ccc([N+](=O)[O-])cc2)C(=O)N1n1c(-c2ccccc2)nc2ccccc2c1=O | > 100 | 72.5 | > 100 | > 100 |  | > 100 | > 100 | > 100
25 | CC1C(c2ccc(Cl)cc2)c2cc3c(cc2OC1N1CCOCC1)OCO3 (centres undefined) | > 100 | > 100 | > 100 | > 100 | > 100 | > 100 | > 100 | > 100
26 | COc1cc(C2c3cc4c(cc3OC(N3CCNCC3)C2C)OCO4)cc(OC)c1OC (centres undefined) | > 34.4 | 14.4 | 2 | 17.5 |  | > 100 | > 100 | > 82.3
